Test system: mice embryonic fibroblasts (MEF+/+, knockout mice line LMNA)
Experiment: Effect on Helicobacter pylori-induced mitochondrial damage in mouse embryonic fibroblasts (mito-GFP confocal microscopy)
Type: cell-based
Conditions: peptide 10 µM added 30 minutes before Helicobacter pylori (strain Cag J117), 7 hours incubation; compared to control
Method: A study of the effect of a pharmaceutical composition comprising the peptide H-Glu-Asp-Gly-OH as an active substance on molecular and cellular mechanisms of apoptosis was carried out on a wild type of mice embryonic fibroblasts (MEF+/+, knockout mice line LMNA). Cells were cultivated at 37°C in a damp incubation medium containing 5% CO2 in DMEM (Dulbecco's Modified Eagle's Medium, ICN Biomedicals) and 10% calf embryonic serum. Preliminary sorting of cells for passaging in a 1:3-1:5 ratio was performed using a mixture of 0.125% trypsin, 0.02M EDTA (ethylenediaminetetraacetic acid), 0.02% glucose dissolved in a phosphate buffer. Cells were passaged in a culturing medium for 5 days and then taken for the study.
On the 5th day after the beginning of passaging of the cells peptide H-Glu-Asp-Gly-OH was added in the culturing medium in the dose of 10 µM, and in 30 minutes the cells were taken for study. […]
The status of isolated mitochondria was evaluated using immunofluorescent confocal laser microscopy. […]
Confocal microscopy of mitochondria with optical density evaluation was carried out in an inverted confocal microscope Olympus Fluoview CM FV300-IX70 using an apochromatic lens 606 UPlan (Olympus). A 488 nm excitation wave of argon laser was used in each chamber to specify mito-GFP fluorescence that verifies the structure of mitochondria.

## glutamyl-aspartyl-glycine [H-Glu-Asp-Gly-OH]
  luminescence of mitochondrial GFP in terms of optical density values: exceeded the control indices
